Experimental data taken from patent publication US20200009168A1, “MICROBIOME REGULATORS AND RELATED USES THEREOF” (KALEIDO BIOSCIENCES, INC., priority 2015, published 2020).

How the values were obtained:
[1] = tested on: colonic regulatory T cells; details: in mice or in vitro; cited from earlier work
[2] = tested on: Clostridium scindens ATCC 35704 "CSC.32"; experiment: Sugar-supported growth of commensal bacteria, CSC.32; assay type: cell-based; details: 0.5% w/v sugar, 37° C., 18-24 hours, anaerobic; OD600 divided by OD600 with 0.5% w/v dextrose
Description: (§1) An in vitro assay was performed to assess the ability of various bacterial strains, including commensals of the gastrointestinal tract, to utilize different sugars as growth substrates. This assay was designed to assess the ability of selected natural monosaccharides, disaccharides and synthetic sugars to promote the growth of microbiota associated with a healthy state. Bacterial strains were handled at all steps in an anaerobic chamber (AS-580, Anaerobe Systems) featuring a palladium catalyst. The chamber was initially made anaerobic by purging with an anaerobic gas mixture of 5% hydrogen, 5% carbon dioxide and 90% nitrogen and subsequently maintained in an anaerobic state using this same anaerobic gas mixture. Anaerobicity of the chamber was confirmed daily using Oxoid anaerobic indicator strips that change color in the presence of oxygen. All culture media, assay plates, other reagents and plastic consumables were pre-reduced in the anaerobic chamber for 24-48 hours prior to contact with bacteria. Sugars were prepared at 5% w/v in water, filter-sterilized and added to Costar 3370 assay plates for a final concentration of 0.5% w/v in the assay, with each microbiome regulator assayed in two non-adjacent wells and dextrose and water supplied as positive and negative controls.
(§2) Bacterial isolates were obtained from the American Type Culture Collection (ATCC) and Leibniz Institute DSMZ-German Institute of Microorganisms and Cell Cultures (DSMZ). Cultures of the Bacteroidetes Bacteroides caccae ATCC 43185 “BCA.26”, Bacteroides thetaiotaomicron ATCC 29741 “BTH.8”, Bacteroides cellulosilyticus DSM 14838 “BCE.71”, Parabacteroides distasonis ATCC 8503 “PDI.6” and Prevotella copri DSM 18205 “PCO.72”; the Clostridiales Clostridium scindens ATCC 35704 “CSC.32”, Dorea formicigenerans ATCC 27755 “DFO.36” and Ruminococcus obeum ATCC 29714 “ROB.74”; and the Bifidobacteria Bifidobacterium longum ATCC 15707 “BLO.16” and Bifidobacterium longum DSM 20088 “BLO.83”, were grown anaerobically in Chopped Meat Glucose broth (CMG, Anaerobe Systems), a pre-reduced enriched medium including lean ground beef, enzymatic digest of casein, yeast extract, potassium phosphate, dextrose, cysteine, hemin and Vitamin K1, for 18-48 hours at 37° C. Inocula were prepared by determining the optical density of each culture at […] (OD600) in a Costar 3370 polystyrene 96-well flat-bottom assay plate using a Biotek Synergy 2 plate reader with Gen5 2.0 All-In-One Microplate Reader Software according to manufacturer's protocol, and diluting the cells to OD600 0.01 final in defined and semi-defined media that were prepared without sugars. D. formicigenerans, P. distasonis and B. longum isolates were tested in 900 mg/L sodium chloride, 26 mg/L calcium chloride dihydrate, 20 mg/L magnesium chloride hexahydrate, 10 mg/L manganese chloride tetrahydrate, 40 mg/L ammonium sulfate, 4 mg/L iron sulfate heptahydrate, 1 mg/L cobalt chloride hexahydrate, 300 mg/L potassium phosphate dibasic, 1.5 g/L sodium phosphate dibasic, 5 g/L sodium bicarbonate, 0.125 mg/L biotin, 1 mg/L pyridoxine, […], 75 mg/L histidine, 75 mg/L glycine, 75 mg/L tryptophan, 150 mg/L arginine, 150 mg/L methionine, 150 mg/L threonine, 225 mg/L valine, 225 mg/L isoleucine, 300 mg/L leucine, 400 mg/L cysteine, and 450 mg/L proline (Theriot C M et al. Nat Commun. 2014; 5:3114), supplemented with 0-3.5% (v/v) CMG. B. thetaiotaomicron, B. caccae and B. cellulosyliticus were tested in 100 mM potassium phosphate buffer (pH 7.2), 15 mM sodium chloride, 8.5 mM ammonium sulfate, 4 mM L-cysteine, 1.9 μM hematin, 200 μM L-histidine, 100 μM magnesium chloride, 1.4 μM iron sulfate heptahydrate, 50 μM calcium chloride, 1 μg/mL vitamin K3 and 5 ng/mL vitamin B12 (Martens E C et al. Cell Host & Microbe 2008; 4, 447-457). […]

[3] = tested on: Prevotella copri DSM 18205 "PCO.72"; experiment: Sugar-supported growth of commensal bacteria, PCO.72; assay type: cell-based; details: 0.5% w/v sugar, 37° C., 18-24 hours, anaerobic; OD600 divided by OD600 with 0.5% w/v dextrose
Description: as §1, §2

[4] = tested on: Dorea formicigenerans ATCC 27755 "DFO.36"; experiment: Sugar-supported growth of commensal bacteria, DFO.36; assay type: cell-based; details: 0.5% w/v sugar, 37° C., 18-24 hours, anaerobic; OD600 divided by OD600 with 0.5% w/v dextrose
Description: as §1, §2

[5] = tested on: Bacteroides caccae ATCC 43185 "BCA.26"; experiment: Sugar-supported growth of commensal bacteria, BCA.26; assay type: cell-based; details: 0.5% w/v sugar, 37° C., 18-24 hours, anaerobic; OD600 divided by OD600 with 0.5% w/v dextrose
Description: as §1, §2

[6] = tested on: Bifidobacterium longum DSM 20088 "BLO.83"; experiment: Sugar-supported growth of commensal bacteria, BLO.83; assay type: cell-based; details: 0.5% w/v sugar, 37° C., 18-24 hours, anaerobic; OD600 divided by OD600 with 0.5% w/v dextrose
Description: as §1
Bacterial isolates were obtained from the American Type Culture Collection (ATCC) and Leibniz Institute DSMZ-German Institute of Microorganisms and Cell Cultures (DSMZ). Cultures of the Bacteroidetes Bacteroides caccae ATCC 43185 “BCA.26”, Bacteroides thetaiotaomicron ATCC 29741 “BTH.8”, Bacteroides cellulosilyticus DSM 14838 “BCE.71”, Parabacteroides distasonis ATCC 8503 “PDI.6” and Prevotella copri DSM 18205 “PCO.72”; the Clostridiales Clostridium scindens ATCC 35704 “CSC.32”, Dorea formicigenerans ATCC 27755 “DFO.36” and Ruminococcus obeum ATCC 29714 “ROB.74”; and the Bifidobacteria Bifidobacterium longum ATCC 15707 “BLO.16” and Bifidobacterium longum DSM 20088 “BLO.83”, were grown anaerobically in Chopped Meat Glucose broth (CMG, Anaerobe Systems), a pre-reduced enriched medium including lean ground beef, enzymatic digest of casein, yeast extract, potassium phosphate, dextrose, cysteine, hemin and Vitamin K1, for 18-48 hours at 37° C. Inocula were prepared by determining the optical density of each culture at […] (OD600) in a Costar 3370 polystyrene 96-well flat-bottom assay plate using a Biotek Synergy 2 plate reader with Gen5 2.0 All-In-One Microplate Reader Software according to manufacturer's protocol, and diluting the cells to OD600 0.01 final in defined and semi-defined media that were prepared without sugars. […]

[7] = tested on: Bacteroides thetaiotaomicron ATCC 29741 "BTH.8"; experiment: Sugar-supported growth of commensal bacteria, BTH.8; assay type: cell-based; details: 0.5% w/v sugar, 37° C., 18-24 hours, anaerobic; OD600 divided by OD600 with 0.5% w/v dextrose
Description: as §1, §2

[8] = tested on: Bifidobacterium longum ATCC 15707 "BLO.16"; experiment: Sugar-supported growth of commensal bacteria, BLO.16; assay type: cell-based; details: 0.5% w/v sugar, 37° C., 18-24 hours, anaerobic; OD600 divided by OD600 with 0.5% w/v dextrose
Description: as §1, §2

[9] = tested on: Parabacteroides distasonis ATCC 8503 "PDI.6"; experiment: Sugar-supported growth of commensal bacteria, PDI.6; assay type: cell-based; details: 0.5% w/v sugar, 37° C., 18-24 hours, anaerobic; OD600 divided by OD600 with 0.5% w/v dextrose
Description: as §1, §2

[10] = tested on: Ruminococcus obeum ATCC 29714 "ROB.74"; experiment: Sugar-supported growth of commensal bacteria, ROB.74; assay type: cell-based; details: 0.5% w/v sugar, 37° C., 18-24 hours, anaerobic; OD600 divided by OD600 with 0.5% w/v dextrose
Description: as §1, §2

[11] = tested on: panel of 10 commensals; experiment: Sugar-supported growth, whole panel of 10 commensals; assay type: cell-based; details: 0.5% w/v sugar, summary in words
Description: as §1, §2

[12] = tested on: Bacteroides cellulosilyticus DSM 14838 "BCE.71"; experiment: Sugar-supported growth of commensal bacteria, BCE.71; assay type: cell-based; details: 0.5% w/v sugar, 37° C., 18-24 hours, anaerobic; OD600 divided by OD600 with 0.5% w/v dextrose
Description: as §1, §2

[13] = studies by McCance et al (J Biol Chem (1930) 24:795-804); cited from earlier work

Row | SMILES | expression of Foxp3, a T cell regulatory factor [1] | expression of IL-10, an anti-inflammatory cytokine [1] | Average Normalized Growth (NGV), CSC.32 [2] | Average Normalized Growth (NGV), PCO.72 [3] | Average Normalized Growth (NGV), DFO.36 [4] | Average Normalized Growth (NGV), BCA.26 [5] | Average Normalized Growth (NGV), BLO.83 [6] | Average Normalized Growth (NGV), BTH.8 [7] | Average Normalized Growth (NGV), BLO.16 [8] | Average Normalized Growth (NGV), PDI.6 [9] | Average Normalized Growth (NGV), ROB.74 [10] | taxa or strains of the commensal panel whose growth was supported [11] | Average Normalized Growth (NGV), BCE.71 [12] | absorption by the gastrointestinal tract [13]
1 | CCC(=O)O [propionate, propionic acid] | increased | increased |  |  |  |  |  |  |  |  |  |  |  | 
2 | OC[C@H]1O[C@@H](O[C@H]2[C@H](O)[C@@H](O)C(O)O[C@@H]2CO)[C@H](O)[C@@H](O)[C@H]1O (stereo partly shown) [lactose] |  |  | +++ (>1) | +++ (>1) | +++ (>1) | +++ (>1) | +++ (>1) | +++ (>1) | ++ (0.6-1) | +++ (>1) | ++ (0.6-1) | supported some commensals from the taxa Bacteroidetes, Firmicutes, including Lachnospiraceae, and Bifidobacteria | +++ (>1) | 
3 | O=C[C@@H](O)[C@H](O)[C@H](O)CO [arabinose] |  |  |  |  |  |  |  |  |  |  |  |  |  | are not
4 | O=C[C@H](O)[C@@H](O)[C@@H](O)CO [L-arabinose] |  |  | − (<0.2) | ++ (0.6-1) | +++ (>1) | +++ (>1) | − (<0.2) | +++ (>1) | ++ (0.6-1) | − (<0.2) |  | supported some commensals from the taxa Bacteroidetes, Firmicutes, including Lachnospiraceae, and Bifidobacteria | ++ (0.6-1) | 
5 | O=C[C@H](O)[C@@H](O)[C@@H](O)[C@H](O)CO [D-galactose] |  |  | ++ (0.6-1) | +++ (>1) | + (0.2-0.6) | ++ (0.6-1) | +++ (>1) | +++ (>1) | − (<0.2) | +++ (>1) | + (0.2-0.6) | supported some commensals from the taxa Bacteroidetes, Firmicutes, including Lachnospiraceae, and Bifidobacteria | +++ (>1) | readily absorbed
6 | O=C(CO)[C@@H](O)[C@H](O)[C@H](O)CO [D-fructose] |  |  | +++ (>1) | ++ (0.6-1) | +++ (>1) | ++ (0.6-1) | +++ (>1) | ++ (0.6-1) | +++ (>1) | +++ (>1) | ++ (0.6-1) | supported some commensals from the taxa Bacteroidetes, Firmicutes, including Lachnospiraceae, and Bifidobacteria | +++ (>1) | 
7 | C[C@H](O)[C@H](O)[C@@H](O)[C@@H](O)C=O [L-rhamnose] |  |  | − (<0.2) | + (0.2-0.6) | − (<0.2) | − (<0.2) |  | + (0.2-0.6) | − (<0.2) | − (<0.2) |  |  |  | are not
